Measurements published in patent US12209102B2, “Heterocyclic compounds and uses thereof” (Kumquat Biosciences Inc., priority 2022, dated 2025).

Experiments:
[1] = molecular target: T1, K-Ras G12D (Homo sapiens, UniProt P01116, G12D); assay: HTRF resonance energy transfer assay, K-Ras G12D / SOS1 interaction; type: biochemical; conditions: HTRF assay of Example 5; read-out: IC50 against K-Ras G12D
T1 construct: made in house; host or cells: E. coli BL21 (DE3)
Outline: (§1)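 Read-out: HTRF 665/620 nm ratio (excitation 337 nm) after roughly 10 min or longer incubation, used to derive IC50. Donor anti-GST-Eu on GST-K-Ras; acceptor anti-6His-XL665 on His-hSOS1. Duplicate dose series from 10 μM down to 0.01 μM.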

[2] = molecular target: T2, K-Ras G12S (Homo sapiens, UniProt P01116, G12S); assay: HTRF resonance energy transfer assay, K-Ras G12S / SOS1 interaction; type: biochemical; conditions: HTRF assay of Example 5; read-out: IC50 against K-Ras G12S
T2 construct: made in house; host or cells: E. coli BL21 (DE3)
T2 sequence (P01116 1-188 isoform P01116-2 G12S): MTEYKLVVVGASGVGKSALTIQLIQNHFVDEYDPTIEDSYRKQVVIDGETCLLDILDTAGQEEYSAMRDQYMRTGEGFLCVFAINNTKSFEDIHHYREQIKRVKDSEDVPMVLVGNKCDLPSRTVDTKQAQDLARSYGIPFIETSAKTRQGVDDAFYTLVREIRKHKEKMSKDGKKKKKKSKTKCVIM
Outline: as §1

[3] = molecular target: T3, K-Ras G12V (Homo sapiens, UniProt P01116, G12V); assay: HTRF resonance energy transfer assay, K-Ras G12V / SOS1 interaction; type: biochemical; conditions: HTRF assay of Example 5; read-out: IC50 against K-Ras G12V
T3 construct: made in house; host or cells: E. coli BL21 (DE3)
T3 sequence (P01116 1-188 isoform P01116-2 G12V): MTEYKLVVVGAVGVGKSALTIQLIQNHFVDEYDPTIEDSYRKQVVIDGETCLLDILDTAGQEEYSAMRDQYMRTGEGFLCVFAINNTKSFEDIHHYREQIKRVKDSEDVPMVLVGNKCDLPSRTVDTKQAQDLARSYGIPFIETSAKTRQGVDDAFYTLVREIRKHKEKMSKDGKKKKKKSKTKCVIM
Outline: as §1

[4] = molecular target: T4, K-Ras WT (Homo sapiens, UniProt P01116); assay: HTRF resonance energy transfer assay, K-Ras WT / SOS1 interaction; type: biochemical; conditions: HTRF assay of Example 5; read-out: IC50 against K-Ras WT
T4 construct: made in house; host or cells: E. coli BL21 (DE3)
T4 sequence (P01116 1-188 isoform P01116-2): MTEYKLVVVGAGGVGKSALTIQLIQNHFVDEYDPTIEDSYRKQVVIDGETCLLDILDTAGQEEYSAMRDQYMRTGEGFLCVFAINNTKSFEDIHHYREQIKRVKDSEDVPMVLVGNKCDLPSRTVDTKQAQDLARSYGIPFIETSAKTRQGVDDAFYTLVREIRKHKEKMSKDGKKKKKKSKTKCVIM
Outline: as §1

[5] = system: GP2D cells; assay: Ras cellular assay, growth of cells with K-Ras G12D mutation (CellTiter-Glo); type: cell-based; conditions: cell growth, Example 9, G12D mutation, read-out: IC50 against GP2D cells
[6] = system: A549 cells; assay: Ras cellular assay, growth of cells with K-Ras G12S mutation (CellTiter-Glo); type: cell-based; conditions: Homo sapiens, cell growth, Example 9, G12S mutation, read-out: IC50 against A549 cells
Outline: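 A549 cells (K-Ras G12S) in RPMI-1640 with 10% heat-inactivated FBS, seeded e.g. 800 per well in standard or ultra-low-attachment 384-well plates, treated next day with a dilution series (e.g. 10-point, 3-fold). Viability by CellTiter-Glo luminescence about 6 days later; IC50 from four-parameter fit.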

[7] = system: SW620 cells; assay: Ras cellular assay, growth of cells with K-Ras G12V mutation (CellTiter-Glo); type: cell-based; conditions: Homo sapiens, SW-620; cell growth, Example 9, G12V mutation; read-out: IC50 against SW620 cells
Outline: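 SW620 (K-Ras G12V) cells, e.g. 800/well in RPMI-1640 with 10% heat-inactivated FBS on standard or ultra-low attachment plates, were dosed the day after plating with e.g. a 10-point 3-fold series. Viability by CellTiter-Glo luminescence about 6 days later; IC50 from four-parameter fit.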

T1 sequence (P01116 1-188 isoform P01116-2 G12D): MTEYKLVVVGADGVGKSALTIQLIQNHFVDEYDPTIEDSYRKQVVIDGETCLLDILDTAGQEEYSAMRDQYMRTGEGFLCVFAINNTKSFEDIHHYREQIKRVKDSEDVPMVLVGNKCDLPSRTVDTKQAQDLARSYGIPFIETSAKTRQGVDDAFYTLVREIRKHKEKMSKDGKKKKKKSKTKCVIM

Row | IC50 [1] [nM] | IC50 [2] [nM] | IC50 [3] [nM] | IC50 [4] [nM] | IC50 [6] [nM] | IC50 [7] [nM] | SMILES | IC50 [5] [nM]
1 | < 100 | < 100 | < 100 | < 100 | < 5000 | < 5000 | COCC(=O)N1CCC(N2CCOc3c(Cl)c(-c4ccc(F)c5sc(N)c(C#N)c45)c(F)c4nc(OC[C@@]56CCCN5C[C@H](F)C6)nc2c34)C1 (stereo partly drawn) [Compound 1134, 2-amino-4-(8-chloro-10-fluoro-2-(((2R,7aS)-2-fluorotetrahydro-1H-pyrrolizin-7a(5H)-yl)methoxy)-4-(1-(2-methoxyacetyl)pyrrolidin-3-yl)-5,6-dihydro-4H-[1,4]oxazepino[5,6,7-de]quinazolin-9-yl)-7-fluorobenzo[b]thiophene-3-carbonitrile] | < 500
2 | < 100 | < 100 | < 100 | < 100 | < 5000 | < 5000 | N#Cc1c(N)sc2c(F)ccc(-c3c(Cl)c4c5c(nc(OC[C@@]67CCCN6C[C@H](F)C7)nc5c3F)N(C3CCN(C(=O)C5CC(C(F)F)C5)C3)CCO4)c12 (stereo partly drawn) [Compound 864, 2-amino-4-(8-chloro-4-(1-(3-(difluoromethyl)cyclobutane-1-carbonyl)pyrrolidin-3-yl)-10-fluoro-2-(((2R,7aS)-2-fluorotetrahydro-1H-pyrrolizin-7a(5H)-yl)methoxy)-5,6-dihydro-4H-[1,4]oxazepino[5,6,7-de]quinazolin-9-yl)-7-fluorobenzo[b]thiophene-3-carbonitrile] | < 500
3 | < 100 | < 100 | < 100 | < 100 | < 5000 | < 5000 | N#Cc1c(N)sc2c(F)ccc(-c3c(Cl)c4c5c(nc(OC[C@@]67CCCN6C[C@H](F)C7)nc5c3F)N([C@H]3CCOC3)CCO4)c12 [Compound 793, 2-amino-4-(8-chloro-10-fluoro-2-(((2R,7aS)-2-fluorotetrahydro-1H-pyrrolizin-7a(5H)-yl)methoxy)-4-((S)-tetrahydrofuran-3-yl)-5,6-dihydro-4H-[1,4]oxazepino[5,6,7-de]quinazolin-9-yl)-7-fluorobenzo[b]thiophene-3-carbonitrile] | < 500
4 | < 100 | < 100 | < 100 | < 100 | < 5000 | < 5000 | N#Cc1c(N)sc2c(F)ccc(-c3c(Cl)c4c5c(nc(OC[C@@]67CCCN6C[C@H](F)C7)nc5c3F)N(C3CCN(C(=O)C[C@@H]5CCCO5)C3)CCO4)c12 (stereo partly drawn) [Compound 777, 2-amino-4-(8-chloro-10-fluoro-2-(((2R,7aS)-2-fluorotetrahydro-1H-pyrrolizin-7a(5H)-yl)methoxy)-4-(1-(2-((S)-tetrahydrofuran-2-yl)acetyl)pyrrolidin-3-yl)-5,6-dihydro-4H-[1,4]oxazepino[5,6,7-de]quinazolin-9-yl)-7-fluorobenzo[b]thiophene-3-carbonitrile] | < 500
5 | < 100 | < 100 | < 100 | < 100 | < 5000 | < 5000 | COC1CC(C(=O)N2CCC(N3CCOc4c(Cl)c(-c5ccc(F)c6sc(N)c(C#N)c56)c(F)c5nc(OC[C@@]67CCCN6C[C@H](F)C7)nc3c45)C2)C1 (stereo partly drawn) [Compound 881, 2-amino-4-(8-chloro-10-fluoro-2-(((2R,7aS)-2-fluorotetrahydro-1H-pyrrolizin-7a(5H)-yl)methoxy)-4-(1-(3-methoxycyclobutane-1-carbonyl)pyrrolidin-3-yl)-5,6-dihydro-4H-[1,4]oxazepino[5,6,7-de]quinazolin-9-yl)-7-fluorobenzo[b]thiophene-3-carbonitrile] | < 500

More lines, now with the values behind:

Row | SMILES | IC50 [1] [nM] | IC50 [2] [nM] | IC50 [3] [nM] | IC50 [4] [nM] | IC50 [6] [nM] | IC50 [7] [nM] | IC50 [5] [nM]
6 | CC(C)(O)C1COc2c(Cl)c(-c3ccc(F)c4sc(N)c(C#N)c34)c(F)c3nc(OC[C@@]45CCCN4C[C@H](F)C5)nc(c23)N1CC(F)F (stereo partly drawn) [Compound 755, 2-amino-4-(8-chloro-4-(2,2-difluoroethyl)-10-fluoro-2-(((2R,7aS)-2-fluorotetrahydro-1H-pyrrolizin-7a(5H)-yl)methoxy)-5-(2-hydroxypropan-2-yl)-5,6-dihydro-4H-[1,4]oxazepino[5,6,7-de]quinazolin-9-yl)-7-fluorobenzo[b]thiophene-3-carbonitrile] | < 100 | < 100 | < 100 | < 100 | < 5000 | < 5000 | < 500
7 | C[C@H](Oc1nc2c3c(c(Cl)c(-c4ccc(F)c5sc(N)c(C#N)c45)c(F)c3n1)OCCN2CC(F)F)[C@@H]1CCCN1C [Compound 901, 2-amino-4-(8-chloro-4-(2,2-difluoroethyl)-10-fluoro-2-((S)-1-((S)-1-methylpyrrolidin-2-yl)ethoxy)-5,6-dihydro-4H-[1,4]oxazepino[5,6,7-de]quinazolin-9-yl)-7-fluorobenzo[b]thiophene-3-carbonitrile] | < 100 | < 100 | < 100 | < 100 | < 5000 | < 5000 | < 500
8 | N#Cc1c(N)sc2c(F)ccc(-c3c(Cl)c4c5c(nc(OC[C@@]67CCCN6C[C@H](F)C7)nc5c3F)N(C3COCC3O)CCO4)c12 (stereo partly drawn) [Compound 874, 2-amino-4-(8-chloro-10-fluoro-2-(((2R,7aS)-2-fluorotetrahydro-1H-pyrrolizin-7a(5H)-yl)methoxy)-4-(4-hydroxytetrahydrofuran-3-yl)-5,6-dihydro-4H-[1,4]oxazepino[5,6,7-de]quinazolin-9-yl)-7-fluorobenzo[b]thiophene-3-carbonitrile] | < 100 | < 100 | < 100 | < 100 | < 5000 | < 5000 | < 500
9 | N#CCCC1CN(CC(F)F)c2nc(OC[C@@]34CCCN3C[C@H](F)C4)nc3c(F)c(-c4ccc(F)c5sc(N)c(C#N)c45)c(Cl)c(c23)O1 (stereo partly drawn) [Compound 704, 2-amino-4-(8-chloro-6-(2-cyanoethyl)-4-(2,2-difluoroethyl)-10-fluoro-2-(((2R,7aS)-2-fluorotetrahydro-1H-pyrrolizin-7a(5H)-yl)methoxy)-5,6-dihydro-4H-[1,4]oxazepino[5,6,7-de]quinazolin-9-yl)-7-fluorobenzo[b]thiophene-3-carbonitrile] | < 100 | < 100 | < 100 | < 100 | < 5000 | < 5000 | < 500
10 | CN1c2nc(OC[C@@]34CCCN3C[C@H](F)C4)nc3c(F)c(-c4ccc(F)c5sc(N)c(C#N)c45)c(Cl)c(c23)OCC1CO (stereo partly drawn) [Compound 900, 2-amino-4-(8-chloro-10-fluoro-2-(((2R,7aS)-2-fluorotetrahydro-1H-pyrrolizin-7a(5H)-yl)methoxy)-5-(hydroxymethyl)-4-methyl-5,6-dihydro-4H-[1,4]oxazepino[5,6,7-de]quinazolin-9-yl)-7-fluorobenzo[b]thiophene-3-carbonitrile] | < 100 | < 100 | < 100 | < 100 | < 5000 | < 5000 | < 500
